Measured values from US10933063B2 (priority 2017, dated 2021).
Like-named read-outs stand apart in the source and are kept apart here.

Key:
Btk [1] = target: Btk (Mus musculus (Mouse), UniProt P35991); assay: Btk occupancy in vivo (PBMCs or splenocytes, PCI-33380 labeling); conditions: 4 hours after dosing, Babc/L mice
Procedure: For analysis of Btk occupancy in Babc/L mice following oral dosing of compounds after 4 hours. Isolating peripheral blood mononuclear cells (PBMCs) with mouse peripheral blood separation kit (Hao Yang Biological Manufacture CO., LTD, Tianjin) were collected from Babc/L mice (1 ml blood from two mice). Spleens were processed to splenocytes followed by 5 min incubation in red blood cell lysing buffer (from mouse peripheral blood separation kit).

BTK [2] = target: BTK (Homo sapiens (Human), UniProt Q06187)
Procedure: (§1) Btk kinase activity was determined using a homogenous time resolved fluorescence (HTRF) methodology. Measurements were performed in a reaction volume of 15 μL using 384-well assay plates. Kinase enzyme, inhibitor, ATP and 1 μM peptide substrate were incubated in a reaction buffer compose of Hepes50 mM (pH7.0), NaN3 0.02%, BSA 0.01%, Orthocanadate 0.1 mM. […] For each compound, enzyme activity as measured at various concentrations of compound, Negative control reactions were performed in the absence of inhibitor in two replicates and eight no enzyme controls were used to determine baseline fluorescence levels.

LYN = LYN (Homo sapiens (Human), UniProt P07948); conditions: read-out: LYN IC50, [ATP]=20 μM
Procedure: as §1
(§2) For LYN assay, [ATP]=20 μM, LYN=0.12 n M. For LCK assay, [ATP]=20 μM, LCK=0.2 nM.

LCK = LCK (Homo sapiens (Human), UniProt P06239); conditions: read-out: LCK IC50; [ATP]=20 μM, LCK=0.2 nM
Procedure: as §1, §2

TEC = TEC (Homo sapiens (Human), UniProt P42680); assay: biochemical
EGFR = EGFR (Homo sapiens (Human), UniProt P00533); assay: biochemical
ITK = ITK (Homo sapiens (Human), UniProt Q08881); assay: biochemical
ITK, sequence (Q08881 whole entry, looked up, species assumed): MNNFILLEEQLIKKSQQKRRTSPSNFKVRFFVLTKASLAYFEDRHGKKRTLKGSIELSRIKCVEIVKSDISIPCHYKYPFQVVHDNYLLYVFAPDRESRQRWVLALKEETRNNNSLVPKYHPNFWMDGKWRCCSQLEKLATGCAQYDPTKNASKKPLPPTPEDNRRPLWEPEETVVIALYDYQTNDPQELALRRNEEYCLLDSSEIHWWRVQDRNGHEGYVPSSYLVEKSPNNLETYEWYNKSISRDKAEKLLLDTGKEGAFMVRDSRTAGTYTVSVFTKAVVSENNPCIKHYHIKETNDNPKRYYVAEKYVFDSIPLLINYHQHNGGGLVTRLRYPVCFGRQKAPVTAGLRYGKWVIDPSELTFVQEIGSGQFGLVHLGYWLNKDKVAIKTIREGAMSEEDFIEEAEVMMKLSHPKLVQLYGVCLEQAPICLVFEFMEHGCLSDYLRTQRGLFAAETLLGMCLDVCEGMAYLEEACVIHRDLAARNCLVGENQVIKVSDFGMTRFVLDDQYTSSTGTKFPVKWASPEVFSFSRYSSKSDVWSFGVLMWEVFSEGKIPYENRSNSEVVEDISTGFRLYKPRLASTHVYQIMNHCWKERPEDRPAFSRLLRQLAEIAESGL

LCK, sequence (P06239 whole entry, looked up, species assumed): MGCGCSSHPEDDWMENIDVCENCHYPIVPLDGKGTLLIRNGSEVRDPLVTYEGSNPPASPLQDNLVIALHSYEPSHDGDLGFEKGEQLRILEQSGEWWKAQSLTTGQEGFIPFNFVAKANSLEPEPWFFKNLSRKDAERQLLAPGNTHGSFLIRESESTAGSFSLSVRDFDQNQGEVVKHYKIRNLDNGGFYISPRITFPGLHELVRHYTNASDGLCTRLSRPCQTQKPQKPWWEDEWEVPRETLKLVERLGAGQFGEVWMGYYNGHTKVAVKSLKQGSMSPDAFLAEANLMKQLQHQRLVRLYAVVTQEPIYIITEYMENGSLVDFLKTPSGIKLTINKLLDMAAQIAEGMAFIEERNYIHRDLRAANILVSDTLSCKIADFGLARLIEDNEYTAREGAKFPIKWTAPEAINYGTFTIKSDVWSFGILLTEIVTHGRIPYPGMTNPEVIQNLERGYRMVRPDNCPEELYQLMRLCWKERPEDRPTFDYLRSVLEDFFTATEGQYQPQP
TEC, sequence (P42680 whole entry, looked up): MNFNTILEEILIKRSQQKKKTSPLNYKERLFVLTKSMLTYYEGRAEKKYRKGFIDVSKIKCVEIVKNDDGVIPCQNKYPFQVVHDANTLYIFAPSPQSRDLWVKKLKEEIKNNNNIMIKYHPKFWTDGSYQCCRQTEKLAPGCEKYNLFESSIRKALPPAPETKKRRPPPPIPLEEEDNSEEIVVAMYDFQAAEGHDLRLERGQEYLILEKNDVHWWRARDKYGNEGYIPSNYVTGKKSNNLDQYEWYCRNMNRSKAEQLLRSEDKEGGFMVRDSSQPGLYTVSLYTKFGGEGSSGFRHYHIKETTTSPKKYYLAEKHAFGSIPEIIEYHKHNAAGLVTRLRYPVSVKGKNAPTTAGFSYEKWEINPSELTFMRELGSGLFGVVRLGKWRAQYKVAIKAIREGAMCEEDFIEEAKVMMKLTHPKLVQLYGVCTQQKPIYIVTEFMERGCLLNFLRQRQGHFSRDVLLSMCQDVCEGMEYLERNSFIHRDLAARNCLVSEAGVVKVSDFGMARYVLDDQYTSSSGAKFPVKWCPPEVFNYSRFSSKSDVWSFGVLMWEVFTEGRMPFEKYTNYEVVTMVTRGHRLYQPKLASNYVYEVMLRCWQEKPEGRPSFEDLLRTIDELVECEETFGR
LYN, sequence (P07948 whole entry, looked up, species assumed): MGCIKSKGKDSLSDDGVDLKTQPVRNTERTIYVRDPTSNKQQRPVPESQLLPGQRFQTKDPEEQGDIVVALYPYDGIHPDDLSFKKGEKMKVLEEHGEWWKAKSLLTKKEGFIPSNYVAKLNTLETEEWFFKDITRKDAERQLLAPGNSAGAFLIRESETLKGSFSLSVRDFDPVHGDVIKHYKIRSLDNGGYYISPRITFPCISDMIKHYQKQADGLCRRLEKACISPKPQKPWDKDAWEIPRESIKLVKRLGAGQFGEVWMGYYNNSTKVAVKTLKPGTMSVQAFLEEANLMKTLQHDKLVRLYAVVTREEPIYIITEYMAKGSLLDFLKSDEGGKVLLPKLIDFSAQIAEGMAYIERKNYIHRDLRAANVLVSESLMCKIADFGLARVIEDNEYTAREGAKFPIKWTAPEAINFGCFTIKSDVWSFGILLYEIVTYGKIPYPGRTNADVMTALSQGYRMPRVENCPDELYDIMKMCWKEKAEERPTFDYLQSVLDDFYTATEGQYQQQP
BTK, sequence (Q06187 whole entry, looked up, species assumed): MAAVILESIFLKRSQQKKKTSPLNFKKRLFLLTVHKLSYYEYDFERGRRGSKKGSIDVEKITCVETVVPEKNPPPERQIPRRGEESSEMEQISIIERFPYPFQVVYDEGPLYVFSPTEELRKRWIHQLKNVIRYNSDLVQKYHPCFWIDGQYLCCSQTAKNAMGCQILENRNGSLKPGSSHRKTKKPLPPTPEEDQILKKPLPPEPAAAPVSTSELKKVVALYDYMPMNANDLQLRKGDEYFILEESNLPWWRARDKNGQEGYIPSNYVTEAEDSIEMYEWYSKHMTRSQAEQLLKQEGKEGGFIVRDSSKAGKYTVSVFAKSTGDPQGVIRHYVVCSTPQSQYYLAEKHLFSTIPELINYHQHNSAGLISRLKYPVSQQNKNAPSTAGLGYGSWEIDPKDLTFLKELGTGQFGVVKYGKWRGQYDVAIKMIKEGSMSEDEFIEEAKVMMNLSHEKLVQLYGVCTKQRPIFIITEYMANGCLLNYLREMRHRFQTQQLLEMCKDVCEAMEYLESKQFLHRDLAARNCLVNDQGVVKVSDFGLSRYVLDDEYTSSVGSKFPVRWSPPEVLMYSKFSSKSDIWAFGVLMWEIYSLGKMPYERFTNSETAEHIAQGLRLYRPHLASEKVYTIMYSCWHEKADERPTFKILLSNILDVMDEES
Btk, sequence (P35991 whole entry, looked up): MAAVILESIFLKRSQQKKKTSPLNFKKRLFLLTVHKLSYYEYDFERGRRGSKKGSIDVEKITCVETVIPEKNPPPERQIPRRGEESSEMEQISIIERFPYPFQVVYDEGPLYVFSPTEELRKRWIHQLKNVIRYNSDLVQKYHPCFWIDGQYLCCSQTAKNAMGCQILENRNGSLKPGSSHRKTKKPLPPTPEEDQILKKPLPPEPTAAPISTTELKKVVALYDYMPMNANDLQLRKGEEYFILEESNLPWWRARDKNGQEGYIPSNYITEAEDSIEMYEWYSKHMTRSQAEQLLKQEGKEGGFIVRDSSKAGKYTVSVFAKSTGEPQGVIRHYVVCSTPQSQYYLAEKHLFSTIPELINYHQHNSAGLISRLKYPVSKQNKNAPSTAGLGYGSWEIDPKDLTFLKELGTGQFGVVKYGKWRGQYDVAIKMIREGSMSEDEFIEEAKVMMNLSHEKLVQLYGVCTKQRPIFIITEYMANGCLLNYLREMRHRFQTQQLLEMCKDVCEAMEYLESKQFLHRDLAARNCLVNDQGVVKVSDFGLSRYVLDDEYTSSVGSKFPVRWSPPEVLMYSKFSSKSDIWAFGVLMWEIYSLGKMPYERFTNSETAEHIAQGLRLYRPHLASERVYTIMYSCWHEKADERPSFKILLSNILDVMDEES
EGFR, sequence (P00533 whole entry, looked up, species assumed): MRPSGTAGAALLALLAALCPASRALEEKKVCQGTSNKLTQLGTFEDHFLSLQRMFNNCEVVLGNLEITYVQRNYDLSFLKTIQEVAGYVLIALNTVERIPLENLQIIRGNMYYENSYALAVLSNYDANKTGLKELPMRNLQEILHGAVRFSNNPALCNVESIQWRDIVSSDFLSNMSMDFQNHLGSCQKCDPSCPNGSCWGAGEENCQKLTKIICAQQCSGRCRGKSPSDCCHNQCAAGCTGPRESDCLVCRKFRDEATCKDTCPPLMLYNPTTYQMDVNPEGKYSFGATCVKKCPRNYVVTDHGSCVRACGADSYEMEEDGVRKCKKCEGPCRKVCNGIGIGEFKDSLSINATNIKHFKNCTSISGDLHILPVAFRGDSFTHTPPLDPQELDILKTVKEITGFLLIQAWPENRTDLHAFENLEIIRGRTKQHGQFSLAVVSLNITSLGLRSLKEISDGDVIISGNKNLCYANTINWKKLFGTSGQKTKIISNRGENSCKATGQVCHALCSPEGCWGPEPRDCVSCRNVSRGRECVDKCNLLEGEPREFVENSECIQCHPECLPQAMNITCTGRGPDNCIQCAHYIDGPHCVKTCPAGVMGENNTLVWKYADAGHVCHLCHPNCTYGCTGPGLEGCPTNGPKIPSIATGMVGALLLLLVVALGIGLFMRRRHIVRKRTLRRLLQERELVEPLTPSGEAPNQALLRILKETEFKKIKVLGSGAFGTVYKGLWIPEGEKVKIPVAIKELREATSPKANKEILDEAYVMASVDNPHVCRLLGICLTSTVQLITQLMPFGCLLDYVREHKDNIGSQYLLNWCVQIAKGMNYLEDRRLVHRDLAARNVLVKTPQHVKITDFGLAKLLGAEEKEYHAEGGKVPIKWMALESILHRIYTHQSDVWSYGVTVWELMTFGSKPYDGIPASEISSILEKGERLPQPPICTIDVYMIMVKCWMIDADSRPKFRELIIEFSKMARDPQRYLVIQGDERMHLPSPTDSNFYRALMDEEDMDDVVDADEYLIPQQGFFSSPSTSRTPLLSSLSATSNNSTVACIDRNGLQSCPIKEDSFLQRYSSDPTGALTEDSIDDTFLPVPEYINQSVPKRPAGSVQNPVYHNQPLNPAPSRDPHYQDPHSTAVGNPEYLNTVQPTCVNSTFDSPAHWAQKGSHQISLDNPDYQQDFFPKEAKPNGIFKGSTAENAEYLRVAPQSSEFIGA

CC#CC(=O)N1CCCC[C@H]1c1nc(-c2ccc(Oc3cccc(OC)c3F)cc2)c2c(C)nccn12 [Example 5, (S)-1-(2-(1-(4-(2-Fluoro-3-methoxyphenoxy)phenyl)-8-methylimidazo[1,5-a]pyrazin-3-yl)piperidin-1-yl)but-2-yn-1-one]
Btk occupancy in vivo (Btk [1]; 10 mg/kg single oral dose): full occupancy

C=CC(=O)N1CCCC[C@H]1c1nc(-c2ccc(Oc3cccc(OC)c3F)cc2)c2c(C)nccn12 [Example 27, (S)-1-(2-(1-(4-(2-fluoro-3-methoxyphenoxy)phenyl)-8-methylimidazo[1,5-a]pyrazin-3-yl)piperidin-1-yl)prop-2-en-1-one]
Btk occupancy in vivo (Btk [1]; 10 mg/kg single oral dose): full occupancy | IC50 (BTK [2]; read-out: BTK IC50): < 10 nM | IC50 (BTK [2]; read-out: BTK Inhibition): < 10 nM | IC50 (LYN): > 10000 nM | IC50 (LCK): > 10000 nM | IC50 (TEC): 100 to 1000 nM | IC50 (EGFR): 100 to 1000 nM | IC50 (ITK): 1000 to 10000 nM

C=CC(=O)N1CCC[C@@H](c2nc(-c3ccc(Oc4cccc(OC)c4F)cc3)c3cnccn23)C1 [Example 1, (R)-1-(3-(1-(4-(2-fluoro-3-methoxyphenoxy)phenyl)imidazo[1,5-a]pyrazin-3-yl)piperidin-1-yl)prop-2-en-1-one]
Btk occupancy in vivo (Btk [1]; 5 mg/kg single oral dose): full occupancy | IC50 (BTK [2]; read-out: BTK IC50): < 10 nM | IC50 (BTK [2]; read-out: BTK Inhibition): < 10 nM | IC50 (LYN): > 10000 nM | IC50 (LCK): > 10000 nM | IC50 (TEC): 100 to 1000 nM | IC50 (EGFR): 100 to 1000 nM | IC50 (ITK): 1000 to 10000 nM

C=CC(=O)N1CCC[C@H]1c1nc(-c2ccc(Oc3cccc(OC)c3F)cc2)c2cnccn12 [Example 30, (S)-1-(2-(1-(4-(2-fluoro-3-methoxyphenoxy)phenyl)imidazo[1,5-a]pyrazin-3-yl)pyrrolidin-1-yl)prop-2-en-1-one]
Btk occupancy in vivo (Btk [1]; 5 mg/kg single oral dose): full occupancy | IC50 (BTK [2]; read-out: BTK IC50): < 10 nM | IC50 (BTK [2]; read-out: BTK Inhibition): < 10 nM | IC50 (LYN): > 10000 nM | IC50 (LCK): > 10000 nM | IC50 (TEC): 100 to 1000 nM
